Results reported in patent US20210000730A1, “COMPOSITION COMPRISING OPTICAL CLEARING AGENT FOR IMPROVING OPTICAL CHARACTERISTIC OF SKIN” (LG HOUSEHOLD & HEALTH CARE LTD., priority 2018, published 2021).
“Also recorded” adds a separate entry of the source.

System: corneum of subjects collected using corneum tape
Experiment: Reduction of light scattering of corneum tape, dark field image of polarization microscope with image analysis
Settings: washed and dried after 3~4 hours
Source text: The bright field image is a basic observation method of simply magnifying a sample without a unique optical unit and it is suitable for confirming the structure of the sample, but it is not appropriate for confirming the scattering light. The dark field image is an observation method of inducing the direct illumination light reaching the sample out, and collecting only the scattering light from the sample with objective lens, and the light from the upper light source of the microscope is scattered from the keratinocytes and appears white, and as the scattering decreases, it appears black.
The numerical value of the analyzed image is expressed in the range of 30-200, and the more the white image is, the higher the value is. The average value of the image numerical value of the unapplied site and the average value of the image numerical value of the applied site were obtained, and the reduction ratio of the image numerical value of the applied site compared to the unapplied site was calculated as a percentage.
On the other hand, to compare the effect of the present disclosure by relative values at the same concentration, the solution of urea, glycerol, sucrose, sodium lactate, polyethylene glycol 400 and hexanediol of the same concentration (10% by weight) was prepared and compared and evaluated (FIG. 3a). […]

SMILES: NC(N)=O [urea]
- reduction of light scattering compared to the control group (water) (10% of urea, 100 ul applied): 17%
- light scattering of corneum after treatment, washing and drying (photograph, dark field image) (urea applied to corneum tape, control water): the scattering was reduced and it appeared transparent; also recorded: corneum scattering was reduced and appeared black
